Results taken from the supplement of paper PMC11451515.

Test system: SEM cells
Assay: cell viability relative to DMSO control; higher = less cytotoxic
Conditions: 48 h
How it was run: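 Leukemia cells (NOMO1 or SEM, 500 cells/well; P12-Ichikawa, 1000 cells/well) were seeded in 5 μl in 1536-well plates after at least four passages of adaptation to each medium. They received library compounds in DMSO by pin dosing, 11 threefold points from 47 μM to 0.79 nM. Luminescence with CellTiter-Glo One was read after 48 h at 37°C. Viability is stated per plate relative to DMSO wells, with cell-free wells as background.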

[1] = HPLM + 10% dialyzed FBS, 0.000781 µM
[2] = HPLM + 10% dialyzed FBS, 0.00234 µM
[3] = HPLM + 10% dialyzed FBS, 0.00702 µM
[4] = HPLM + 10% dialyzed FBS, 0.0211 µM
[5] = HPLM + 10% dialyzed FBS, 0.0632 µM
[6] = HPLM + 10% dialyzed FBS, 0.19 µM
[7] = HPLM + 10% dialyzed FBS, 0.569 µM
[8] = HPLM + 10% dialyzed FBS, 1.71 µM
[9] = HPLM + 10% dialyzed FBS, 5.12 µM
[10] = HPLM + 10% dialyzed FBS, 15.4 µM
[11] = HPLM + 10% dialyzed FBS, 46.1 µM
[12] = RPMI 5 mM glucose + 10% FBS, 0.000781 µM
[13] = RPMI 5 mM glucose + 10% FBS, 0.00234 µM
[14] = RPMI 5 mM glucose + 10% FBS, 0.00702 µM
[15] = RPMI 5 mM glucose + 10% FBS, 0.0211 µM
[16] = RPMI 5 mM glucose + 10% FBS, 0.0632 µM
[17] = RPMI 5 mM glucose + 10% FBS, 0.19 µM
[18] = RPMI 5 mM glucose + 10% FBS, 0.569 µM
[19] = RPMI 5 mM glucose + 10% FBS, 1.71 µM
[20] = RPMI 5 mM glucose + 10% FBS, 5.12 µM
[21] = RPMI 5 mM glucose + 10% FBS, 15.4 µM
[22] = RPMI 5 mM glucose + 10% FBS, 46.1 µM
[23] = RPMI 5 mM glucose + 10% dialyzed FBS, 0.000781 µM
[24] = RPMI 5 mM glucose + 10% dialyzed FBS, 0.00234 µM
[25] = RPMI 5 mM glucose + 10% dialyzed FBS, 0.00702 µM
[26] = RPMI 5 mM glucose + 10% dialyzed FBS, 0.0211 µM
[27] = RPMI 5 mM glucose + 10% dialyzed FBS, 0.0632 µM
[28] = RPMI 5 mM glucose + 10% dialyzed FBS, 0.19 µM
[29] = RPMI 5 mM glucose + 10% dialyzed FBS, 0.569 µM
[30] = RPMI 5 mM glucose + 10% dialyzed FBS, 1.71 µM
[31] = RPMI 5 mM glucose + 10% dialyzed FBS, 5.12 µM
[32] = RPMI 5 mM glucose + 10% dialyzed FBS, 15.4 µM
[33] = RPMI 5 mM glucose + 10% dialyzed FBS, 46.1 µM

| SMILES | cell viability [1] | cell viability [2] | cell viability [3] | cell viability [4] | cell viability [5] | cell viability [6] | cell viability [7] | cell viability [8] | cell viability [9] | cell viability [10] | cell viability [11] | cell viability [12] | cell viability [13] | cell viability [14] | cell viability [15] | cell viability [16] | cell viability [17] | cell viability [18] | cell viability [19] | cell viability [20] | cell viability [21] | cell viability [22] | cell viability [23] | cell viability [24] | cell viability [25] | cell viability [26] | cell viability [27] | cell viability [28] | cell viability [29] | cell viability [30] | cell viability [31] | cell viability [32] | cell viability [33] |
| --- | --- | --- | --- | --- | --- | --- | --- | --- | --- | --- | --- | --- | --- | --- | --- | --- | --- | --- | --- | --- | --- | --- | --- | --- | --- | --- | --- | --- | --- | --- | --- | --- | --- |
| COc1ccc(Nc2cc(-c3cnc(N)nc3)nc(N3CCOCC3)n2)cn1 | 93.8% | 96.7% | 90.6% | 96.8% | 99.4% | 102% | 92.6% | 84.7% | 47.3% | 59.8% | 44.6% | 104% | 104% | 110% | 115% | 120% | 99.5% | 108% | 99% | 52.8% | 65.6% | 57% | 98.6% | 89.5% | 91% | 105% | 97% | 80.9% | 89.6% | 89.7% | 43.9% | 57.4% | 44.5% |
| O=C1N\2CCC3=C([NH]C4=C3C=CC=C4)C2=N/C5=CC=CC=C15 | 96% | 102% | 114% | 118% | 92.8% | 123% | 123% | 115% | 110% | 90.8% | 76.8% | 124% | 113% | 137% | 134% | 109% | 126% | 122% | 147% | 144% | 95% | 83.7% | 123% | 112% | 142% | 135% | 121% | 153% | 147% | 135% | 151% | 101% | 53.6% |
| O=C(CCc1ccc(O)cc1)c1c(O)cc(O)cc1O[C@@H]1O[C@H](CO)[C@@H](O)[C@H](O)[C@H]1O | 78.3% | 99.9% | 107% | 107% | 100% | 85.8% | 88.2% | 102% | 104% | 93.1% | 81.9% | 80.9% | 93.9% | 98.4% | 97.6% | 79.6% | 94.6% | 89.4% | 78.6% | 93.7% | 92.2% | 83.4% | 61.4% | 102% | 89.6% | 104% | 86.9% | 89.1% | 90.5% | 86.7% | 89.5% | 77.4% | 73.1% |
| O=C1CCc2ccc(OCCCCN3CCN(c4cccc(Cl)c4Cl)CC3)cc2N1 | 111% | 121% | 111% | 41% | 113% | 112% | 101% | 89.2% | 129% | 119% | 113% | 104% | 111% | 105% | 24.5% | 96.4% | 101% | 98.5% | 23.1% | 107% | 95.7% | 73.1% | 120% | 108% | 113% | 34.9% | 105% | 112% | 120% | 106% | 105% | 117% | 74.7% |
| CCCCCCCCc1ccc(CCC(N)(CO)CO)cc1 | 103% | 108% | 108% | 111% | 101% | 120% | 110% | 118% | 97.1% | 83.2% | 2.73% | 99.4% | 115% | 107% | 120% | 122% | 111% | 115% | 121% | 93.7% | 107% | 2.59% | 105% | 116% | 117% | 110% | 104% | 110% | 115% | 109% | 107% | 124% | 3.38% |
| CO[C@H]1C[C@@H]2CC[C@@H](C)[C@@](O)(O2)C(=O)C(=O)N2CCCC[C@H]2C(=O)O[C@H]([C@H](C)C[C@@H]2CC[C@@H](OCCO)[C@H](OC)C2)CC(=O)[C@H](C)/C=C(/C)[C@@H](O)[C@@H](OC)C(=O)[C@H](C)C[C@H](C)\C=C/C=C\C=C/1C | 47.5% | 91.9% | 74.6% | 65.2% | 77.2% | 58.6% | 42.7% | 42.1% | 20.8% | 10.7% | 14.2% | 51.7% | 86.2% | 71.1% | 71.7% | 75% | 64.9% | 41.5% | 28.4% | 17.2% | 12.9% | 12.6% | 50.8% | 84% | 73.8% | 65.4% | 68.3% | 63.4% | 49.5% | 37% | 13.7% | 10.4% | 11.8% |
| Nc1nc(OCc2ccccc2)c2nc[nH]c2n1 | 99.9% | 107% | 114% | 112% | 112% | 124% | 114% | 115% | 115% | 105% | 127% | 82% | 101% | 84.5% | 92.3% | 103% | 97.5% | 89.4% | 78.4% | 93.8% | 76.7% | 88.9% | 90.2% | 102% | 109% | 103% | 104% | 112% | 98.6% | 86.6% | 94.5% | 76.1% | 103% |
| CC(=O)O[C@@]12CO[C@@H]1C[C@H](O)[C@]3(C)[C@@H]2[C@H](OC(=O)C4=CC=CC=C4)[C@]5(O)C[C@H](OC(=O)C(O)[C@@H](NC(=O)OC(C)(C)C)C6=CC=CC=C6)C(=C(/[C@@H](O)C3=O)C5(C)C)/C (some centres not stated) | 23.5% | 25.1% | 25.4% | 26% | 26.5% | 27.2% | 26.1% | 23.3% | 22.7% | 18.6% | 5.16% | 13.7% | 22% | 21.2% | 18.1% | 20.1% | 20.7% | 18.1% | 16.7% | 12.1% | 9.57% | 4.28% | 23.4% | 21.1% | 23% | 21.2% | 21.4% | 19.5% | 18.9% | 16.7% | 16.5% | 10.5% | 2.56% |
| Cc1ccc(C(=O)c2cc(O)c(O)c([N+](=O)[O-])c2)cc1 | 78.2% | 96.4% | 98.5% | 81.4% | 97.7% | 91.1% | 115% | 110% | 108% | 111% | 95.6% | 92.6% | 88% | 103% | 100% | 96.7% | 101% | 101% | 99.7% | 110% | 87.6% | 95.9% | 83.1% | 82.8% | 88.7% | 96.1% | 93.4% | 94% | 80.8% | 89.4% | 102% | 88.8% | 101% |
| COC1=CC2=C(C=C1OC)[C@H]3[C@@H](CO2)OC4=C(C=CC5=C4\C=C/C(C)(C)O5)C3=O | 82.5% | 97.1% | 101% | 96.8% | 85.3% | 89% | 92.7% | 91% | 78.9% | 85.2% | 3.39% | 95.1% | 99.1% | 107% | 95.6% | 78.5% | 112% | 85.4% | 71% | 24.4% | 31% | 3.59% | 87.7% | 85.1% | 92.4% | 88.9% | 64.6% | 79.2% | 75.4% | 63% | 44.8% | 46.2% | 3.18% |
| CO[C@@H]1C(N(C)C(=O)c2ccccc2)C[C@H]2O[C@]1(C)n1c3ccccc3c3c4c(c5c6ccccc6n2c5c31)C(=O)NC4=O (some centres not stated) | 70.6% | 69.4% | 95.4% | 89.2% | 75.8% | 92.6% | 90% | 80.5% | 40.3% | 14.7% | 7.83% | 68.2% | 66.2% | 92.1% | 91.2% | 86.5% | 86.1% | 75.1% | 47.7% | 19.4% | 10.7% | 7.46% | 81.5% | 84.1% | 91.7% | 79.6% | 82.7% | 102% | 79.7% | 74.4% | 35.7% | 13.2% | 8.6% |
| COC[C@H]1OC(=O)C2=COC3=C2[C@@]1(C)\C4=C(\[C@@H]5CC[C@H](O)[C@@]5(C)C[C@H]4OC(C)=O)C3=O | 95.1% | 117% | 48.9% | 114% | 113% | 113% | 117% | 111% | 102% | 98.6% | 54.7% | 60.9% | 67.4% | 15.9% | 71.7% | 77.7% | 84.9% | 67.9% | 77.3% | 55.9% | 53.2% | 33.7% | 101% | 99% | 45.8% | 98.4% | 115% | 108% | 104% | 105% | 84.7% | 68.2% | 30.8% |
| CN(C)CCN(Cc1ccc(Cl)cc1)c1ccccn1.Cl | 79.9% | 80.5% | 80.9% | 80.1% | 79.3% | 84.8% | 89.9% | 94.4% | 86.6% | 88% | 86.9% | 90.8% | 90.8% | 92.8% | 84.4% | 95.7% | 108% | 102% | 99.5% | 98.8% | 103% | 84.7% | 83.2% | 92.1% | 96.4% | 100% | 94% | 106% | 84% | 96.1% | 92.2% | 106% | 91.6% |
| C[C@@H]1C[C@H]2[C@@H]3CC\C4=C\C(=O)\C=C/[C@]4(C)[C@@]3(Cl)[C@@H](O)C[C@]2(C)[C@@]1(OC(=O)C5=CC=CO5)C(=O)CCl | 28.4% | 82.2% | 45.9% | 53.8% | 61% | 59.3% | 53.2% | 47.7% | 36.9% | 45.6% | 52% | 32.3% | 81.8% | 35.8% | 62.1% | 61% | 50.4% | 50.4% | 45.1% | 36.9% | 37.3% | 50.8% | 30.9% | 76.5% | 39% | 52.5% | 64.1% | 47% | 46.8% | 44.7% | 28.8% | 43% | 36.5% |
